Among the data in PubChem BioAssay (NCI) are GI50 and TGI values, retold here.

A word on the GI50: it is the concentration giving 50% growth inhibition. As usually defined, the TGI is the concentration at which net growth stops. High values mean lower sensitivity of the cells, low ones greater sensitivity of the cells.

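Method: 48-hour compound exposure of cells in 96-well plates, five concentrations, linear interpolation of endpoints. GI50 is the concentration that inhibits growth by half. TGI: total growth inhibition.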

Experiment in all cases: DTP human tumour cell line panel, 48 h
Test [1] has as its system 786-0 renal.
Test [2] has as its system HCT-116 colon.
For test [3], the system named is HOP-62 NSCLC.
For test [4], the system named is IGROV1 ovarian.
Test [5] has as its system K-562 leukemia.
The subject of test [6] is LOX IMVI melanoma.
Test [7] concerns NCI-H522 lung.
Test [8] relates to RPMI-8226 leukemia.
Test [9] deals with SR leukemia.
Test [10] relates to UACC-62 melanoma.

In the case of `N#CC1=C(N)NC(=S)C(C#N)C12Nc1ccccc1S2` (stereo not drawn), the GI50 in [1] is 25.4 µM; in test [2], 18.5 µM; in [3], 17.6 µM; in test [4], 29.3 µM; in test [5], 48.2 µM; in test [6] it was 13.5 µM. For the same compound, the GI50 in test [7] was 16.2 µM; in test [8] it was 61.6 µM; in test [9] it was 78.9 µM; in test [10], 18 µM. The concentration for total growth inhibition (TGI) is 68.9 µM in [1]; 41.7 µM in test [2]; 72.4 µM in test [3]; 72.5 µM in [4]; above 100 µM in test [5]; 32.6 µM in test [6]. In addition, the TGI in test [7] was 35.6 µM; in test [8], above 100 µM; in [9], above 100 µM; in test [10], 33.4 µM.

Regarding `Cc1cc(C(=O)Nc2cc(Nc3ncccc3-c3ncnc4nc[nH]c34)ccc2F)cc(C(C)(C)C#N)c1`, the GI50 in test [1] is 13.9 µM; in [2], 0.151 µM; in test [3], 0.461 µM; in test [4], 0.694 µM; in [5], 0.306 µM; in test [6], 0.0414 µM. In addition, the GI50 in test [7] was 3.54 µM; in test [8], 2.01 µM; in [9] it was 1.99 µM. Besides, the TGI in [1] was above 100 µM; in [2] it was above 41.9 µM; in test [3] it was above 100 µM; in test [4] it was above 100 µM; in test [5] it was above 100 µM; in [6], 0.338 µM. In addition, the concentration for total growth inhibition (TGI) in test [7] is above 100 µM; in test [8], 53.5 µM; in test [9], 45.3 µM.

For `COc1ccc(C2NC(=S)NC3=C2COc2ccc(F)cc23)cc1OC` (stereo not drawn), the GI50 in test [1] was 28.6 µM; in test [2], 16.6 µM; in test [3] it was 26.8 µM; in test [4] it was 29.8 µM; in test [5], 15.9 µM; in test [6], 13.5 µM. Further, the GI50 was 49.2 µM in test [7], 13.5 µM in test [8], 50.8 µM in test [9] and 14.8 µM in test [10]. The TGI in test [1] was above 100 µM; in [2], 57.1 µM; in test [3], above 100 µM; in test [4], above 100 µM; in test [5], above 100 µM; in test [6], 27.6 µM. Further, the total growth inhibition concentration (TGI) is above 100 µM in [7], above 100 µM in [8], above 100 µM in test [9] and 41.8 µM in test [10].

For the compound `NC1(C(=O)O)CSSC1`, the GI50 in [1] was 21.6 µM; in test [2], 4.53 µM; in test [3], 2.92 µM; in [4] it was 3.91 µM; in [5] it was 3.7 µM; in test [6], 3.24 µM. The GI50 in test [7] is 3.41 µM; in [8], 16.8 µM; in test [9], 17.8 µM; in test [10] it was 4.53 µM. Also, the TGI in [1] is above 100 µM; in test [2] it was 84.5 µM; in test [3] it was 9.83 µM; in test [4], 29.9 µM; in test [5], above 100 µM; in test [6] it was 14.8 µM. Also, the TGI in test [7] is 17.7 µM; in [8], 50.8 µM; in [9] it was above 100 µM; in test [10] it was 20.1 µM.

As for `C=C[C@@]1(C)CC(=O)[C@]2(O)[C@@]3(C)[C@@H](O)CCC(C)(C)[C@@H]3[C@H](O)[C@@H](OC(C)=O)[C@@]2(C)O1`, the TGI in test [1], in [2], in [3], in [4], in test [5] and in test [6] was above 100 µM throughout. Further, the TGI is above 100 µM in test [7], 95.4 µM in [8], above 100 µM in test [9] and above 100 µM in test [10].

Consider `O=C(Nc1cccc(Cl)c1)c1cc(Cl)ccc1O`, for which the GI50 in [1] was 1.63 µM; in [2], 0.562 µM; in [3], 1.33 µM; in test [4] it was 1.61 µM; in test [5] it was 0.542 µM; in test [6], 0.543 µM. For the same compound, the concentration for 50% growth inhibition (GI50) in test [7] is 0.32 µM; in test [8], 0.375 µM; in test [9], 0.457 µM; in [10], 0.282 µM. Besides, the total growth inhibition concentration (TGI) in test [1] was 6.18 µM; in [2], 2.12 µM; in [3], 4.03 µM; in [4] it was above 58 µM; in [5], above 100 µM; in test [6] it was 2.26 µM. The concentration for total growth inhibition (TGI) in test [7] came out at 1.78 µM; in test [8], 2.18 µM; in test [9], 2.96 µM; in test [10], 1.21 µM.

As for `CCCCCCCCCCCCNC(=O)[C@H]1CSC(c2ccsc2)N1` (stereo partly drawn), the GI50 is 0.916 µM in test [1]; 0.908 µM in test [2]; 0.873 µM in test [3]; 0.96 µM in test [4]; 1.02 µM in [5]; 0.824 µM in test [6]. In addition, the GI50 is 5.14 µM in test [7], 1.72 µM in test [8], 0.882 µM in [9] and 0.929 µM in [10]. The TGI worked out at 1.65 µM in test [1]; 1.71 µM in test [2]; 1.62 µM in test [3]; 1.92 µM in [4]; 2.04 µM in test [5]; 1.64 µM in test [6]. The TGI in test [7] turned out to be 11.8 µM; in [8] it was 5.69 µM; in test [9], 2.07 µM; in test [10] it was 1.82 µM.

As for `CC(C)c1ccc2c(c1)c(SC(C)(C)C)c(CC(C)(C)C(=O)O)n2Cc1ccc(Cl)cc1`, the GI50 in [1] is 11.1 µM; in test [2] it was 9.1 µM; in test [3], 12.4 µM; in test [4], 10.5 µM; in test [5] it was 7.48 µM; in [6], 10.9 µM. In addition, the GI50 in test [7] was 6.07 µM; in test [8] it was 5.17 µM; in test [9], 10.6 µM; in test [10], 11.8 µM. Besides, the TGI in [1] turned out to be 27.7 µM; in test [2], 25.6 µM; in test [3], 28.9 µM; in test [4], 23.5 µM; in test [5], 37.8 µM; in test [6], 24.7 µM. In addition, the TGI in [7] was 18.1 µM; in [8], 41.8 µM; in test [9] it was 36.7 µM; in test [10] it was 24 µM.
